Measurements from ChEMBL document CHEMBL1156434, “A nonpeptidic agonist of glucagon-like peptide 1 receptors with efficacy in diabetic db/db mice” (Proc Natl Acad Sci U S A, 2007).
Activity calls are given as the source filed them. No cut-off for these calls is given here.

How the values were obtained:
[1] = molecular target: T1, Glucagon-like peptide 1 receptor (Rattus norvegicus, UniProt P32301); test: (§1) Agonist activity at rat GLP1 receptor expressed in HEK293 cells assessed as cAMP release; type: functional, cell-based
T1 sequence (P32301 whole entry): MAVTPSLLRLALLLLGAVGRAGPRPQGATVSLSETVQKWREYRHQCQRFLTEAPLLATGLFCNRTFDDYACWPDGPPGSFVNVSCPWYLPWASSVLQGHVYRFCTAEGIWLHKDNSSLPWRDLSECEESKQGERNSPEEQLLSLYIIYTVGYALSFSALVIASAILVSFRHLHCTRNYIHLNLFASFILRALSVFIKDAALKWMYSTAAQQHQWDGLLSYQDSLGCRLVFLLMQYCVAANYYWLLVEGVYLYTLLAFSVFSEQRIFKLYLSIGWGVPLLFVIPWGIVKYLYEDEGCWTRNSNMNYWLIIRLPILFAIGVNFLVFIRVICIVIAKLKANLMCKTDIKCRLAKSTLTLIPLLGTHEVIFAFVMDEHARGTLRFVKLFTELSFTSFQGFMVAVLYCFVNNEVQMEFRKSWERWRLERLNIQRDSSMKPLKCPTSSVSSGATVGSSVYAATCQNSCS

[2] = molecular target: T1, Glucagon-like peptide 1 receptor; test: (§2) Displacement of [125I]GLP1 from rat GLP1 receptor expressed in HEK293 cells; type: cell-based
[3] = molecular target: T2, Glucagon-like peptide 1 receptor (Rattus norvegicus) (UniProt P32301); test: Agonist activity at rat GLP1 receptor expressed in HEK293 cells assessed as luciferase activity upto 10 uM relative to GLP1; type: functional, cell-based
T2 sequence (whole entry): T1 sequence (P32301 whole entry)

[4] = molecular target: Glucagon-like peptide 1 receptor (Homo sapiens) (UniProt P43220); test: Activity at human GLP1 receptor expressed in HEK293 cells; type: cell-based
Sequence of Glucagon-like peptide 1 receptor (Homo sapiens) (P43220 whole entry): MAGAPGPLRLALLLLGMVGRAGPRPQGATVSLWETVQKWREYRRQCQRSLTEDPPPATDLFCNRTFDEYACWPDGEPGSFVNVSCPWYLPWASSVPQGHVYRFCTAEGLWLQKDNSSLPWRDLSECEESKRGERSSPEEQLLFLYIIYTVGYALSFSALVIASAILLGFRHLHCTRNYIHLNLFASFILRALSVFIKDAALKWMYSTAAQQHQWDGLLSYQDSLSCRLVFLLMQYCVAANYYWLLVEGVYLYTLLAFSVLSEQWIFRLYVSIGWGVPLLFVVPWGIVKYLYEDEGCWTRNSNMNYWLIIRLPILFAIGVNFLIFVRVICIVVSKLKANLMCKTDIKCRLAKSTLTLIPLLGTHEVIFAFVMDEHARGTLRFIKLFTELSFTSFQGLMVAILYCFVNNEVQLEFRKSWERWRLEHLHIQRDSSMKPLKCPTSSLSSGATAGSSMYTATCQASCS

[5] = molecular target: T2, Glucagon-like peptide 1 receptor (Rattus norvegicus); test: Reversal of agonist activity at rat GLP1 receptor expressed in HEK293 cells assessed as luciferase activity at 10 uM in presence of exendin; type: functional, cell-based
[6] = molecular target: T2, Glucagon-like peptide 1 receptor (Rattus norvegicus); test: Reversal of agonist activity at rat GLP1 receptor expressed in HEK293 cells assessed as luciferase activity at 0.05 uM in presence of exendin; type: functional, cell-based
[7] = Induction of glucose-induced insulin release in Sprague-Dawley rat islets at 100 uM relative to control; type: functional
[8] = Induction of glucose-induced insulin release in Sprague-Dawley rat islets at 10 uM relative to control; type: functional
Mus musculus [9] = test: Suppression of food intake in C57BL/6 mouse at 2 mg, ip after 12 hrs; type: functional
Mus musculus [10] = test: Suppression of food intake in ip dosed C57BL/6 mouse after 12 hrs; type: functional
Mus musculus [11] = test: Suppression of food intake in po dosed C57BL/6 mouse after 2 hrs; type: functional
Mus musculus [12] = species: Mus musculus; test: Effect on glycemia in C57BL/6-m+/+Leprdb mouse assessed as HbA1c normalization at 2 mg; type: functional, organism-based
Mus musculus [13] = test: Reversal of suppression of food intake in ip dosed C57BL/6 mouse after 12 hrs in presence of exendin; type: functional, organism-based
Mus musculus [14] = test: Reversal of suppression of food intake in po dosed C57BL/6 mouse after 2 hrs in presence of exendin; type: functional, organism-based
[15] = Terminal half life in C57BL/6 mouse at 2 mg, ip; type: ADME, organism-based; settings: in vivo
Mus musculus [16] = test: Decrease in HbA1c levels in ip dosed C57BL/6-m+/+Leprdb mouse at 8 mg, ip; type: functional, organism-based
Mus musculus [17] = test: Decrease in food intake in ip dosed C57BL/6-m+/+Leprdb mouse; type: functional; set-up: scale not given: the % may be the effect or the level left
Mus musculus [18] = test: Decrease in HbA1c levels in C57BL/6-m+/+Leprdb mouse at 1 mg, ip; type: functional, organism-based
Mus musculus [19] = test: Decrease in HbA1c levels in C57BL/6-m+/+Leprdb mouse at 2 mg, ip; type: functional, organism-based
Mus musculus [20] = species: Mus musculus; test: Effect on glycemia in C57BL/6-m+/+Leprdb mouse assessed as fasting glucose normalization at 1 mg; type: functional, organism-based
Mus musculus [21] = species: Mus musculus; test: Effect on glycemia in C57BL/6-m+/+Leprdb mouse assessed as fasting glucose normalization at 2 mg; type: functional, organism-based
Mus musculus [22] = species: Mus musculus; test: Effect on glycemia in C57BL/6-m+/+Leprdb mouse assessed as HbA1c normalization at 1 mg; type: functional, organism-based
Mus musculus [23] = species: Mus musculus; test: Effect on glucose excursion in C57BL/6-m+/+Leprdb mouse assessed as glucose tolerance normalization at 2 mg; type: functional, organism-based
Mus musculus [24] = species: Mus musculus; test: Decrease in fasting insulin in C57BL/6-m+/+Leprdb mouse at 1 mg; type: functional, organism-based
Mus musculus [25] = species: Mus musculus; test: Decrease in fasting insulin in C57BL/6-m+/+Leprdb mouse at 2 mg; type: functional, organism-based
Mus musculus [26] = species: Mus musculus; test: Decrease in total cholesterol in C57BL/6-m+/+Leprdb mouse at 2 mg; type: functional, organism-based
Mus musculus [27] = species: Mus musculus; test: Decrease in high density lipoprotein in C57BL/6-m+/+Leprdb mouse at 2 mg; type: functional, organism-based
HEK293 = test: Toxicity in HEK293 cells upto 300 uM by MTT assay; type: cell-based; settings: human
Mus musculus [28] = species: Mus musculus; test: Toxicity in C57BL/6 mouse treated upto 6 weeks; type: organism-based; settings: in vivo, 1008 h
[29] = molecular target: T2, Glucagon-like peptide 1 receptor (Rattus norvegicus); test: Agonist activity at rat GLP1 receptor expressed in HEK293 cells assessed as luciferase activity; type: functional, cell-based
[30] = molecular target: T2, Glucagon-like peptide 1 receptor (Rattus norvegicus); test: as §1; type: functional, cell-based
[31] = molecular target: T2, Glucagon-like peptide 1 receptor (Rattus norvegicus); test: as §2; type: cell-based

## COc1cc(C2C(NC(=O)c3ccc(NC(=O)C4CCCC4)cc3)(C(=O)O)C(c3ccc(OC(=O)c4cccs4)c(OC)c3)C2(NC(=O)c2ccc(NC(=O)C3CCCC3)cc2)C(=O)O)ccc1OC(=O)c1cccs1 (stereo not drawn)
[1]
  EC50: 1.08 µM
[2]
  Ki: 0.287 µM
[3]
  Activity: 37%
[4]
  Activity: inactive
[5]
  Activity: Active
[6]
  Activity: Active
[7]
  fold change (FC): 2.6

## COc1cc(C2C(NC(=O)c3ccc(NC(=O)OC(C)(C)C)cc3)(C(=O)O)C(c3ccc(OC(=O)c4cccs4)c(OC)c3)C2(NC(=O)c2ccc(NC(=O)OC(C)(C)C)cc2)C(=O)O)ccc1OC(=O)c1cccs1 (stereo not drawn)
[1]
  EC50: 2.73 µM
[2]
  Ki: 1.47 µM
[3]
  Activity: Active
[4]
  Activity: inactive
[5]
  Activity: Active
[6]
  Activity: Active
[8]
  fold change (FC): 4.5
Mus musculus [9]
  Activity: 54%
Mus musculus [10]
  ED50: 1.57 mg
Mus musculus [11]
  ED50: 0.53 mg
Mus musculus [12]
  Activity: Active
Mus musculus [13]
  Activity: Active
Mus musculus [14]
  Activity: Active
[15]
  half-life: 7.5 h
Mus musculus [16]
  Activity: Active
Mus musculus [17]
  Activity: 24.9%
Mus musculus [18]
  Activity: Active
Mus musculus [19]
  Activity: Active
Mus musculus [20]
  Activity: Active
Mus musculus [21]
  Activity: Active
Mus musculus [22]
  Activity: Active
Mus musculus [23]
  Activity: Active
Mus musculus [24]
  Activity: Active
Mus musculus [25]
  Activity: Active
Mus musculus [26]
  Activity: Active
Mus musculus [27]
  Activity: Active
HEK293
  Activity: Non-toxic
Mus musculus [28]
  Activity: Non-toxic

## CCOc1cc(/C=C2\N=C(c3ccc(NC(C)=O)cc3)OC2=O)ccc1OC(=O)c1cccs1
[29]
  Activity: Active
[30]
  Activity: Active
[31]
  Activity: Active
